Reference: publication PMC6792352, “Limited Chemical Structural Diversity Found to Modulate Thyroid Hormone Receptor in the Tox21 Chemical Library” (Environmental Health Perspectives, 2019)
Counter-ions that a name gives are not always drawn.

Assay: in vitro
Conditions: rat, gh3-tre-luc cells

Structure (SMILES) | CC50 at 24 h (AC50 (uM) modified / 1000) [µM] | further results
Oc1ccc(Oc2ccccc2)cc1 [4-Phenoxyphenol] | 35.8 | –
N#CC(Br)Br [Dibromoacetonitrile] | – | CC50 at 24 h (AC50 (uM) modified / 1000, Tox21_110001=Tox21_202319, viability, 1 nM T3 present, 24 h): > 90 µM
Cc1ccccc1S [2-Methylbenzenethiol] | > 70 | –
CC(C)C(=O)OCC(C)(C)C(OC(=O)C(C)C)C(C)C (stereo not drawn) [2,2,4-Trimethyl-1,3-pentanediol diisobutyrate] | > 90 | –
CCCCc1ncc(/C=C(\Cc2cccs2)C(=O)O)n1Cc1ccc(C(=O)O)cc1 [Eprosartan mesylate] | > 50 | –
CCc1cccc2c3c([nH]c12)C(CC)(CC(=O)O)OCC3 (stereo not drawn) [Etodolac] | > 90 | –
c1ccc2sc(SNC3CCCCC3)nc2c1 [N-Cyclohexyl-2-benzothiazolesulfenamide] | > 90 | –
CN1Cc2c(N)cccc2C(c2ccccc2)C1 (stereo not drawn) [Nomifensine] | 38.8 | –
CCC/C=C/C=O [(2E)-2-Hexenal] | > 90 | –
CCCCCCCCCCCOC(=O)c1ccccc1C(=O)OCCCCCCCCCCC [Diundecyl phthalate] | > 50 | –
CC(=O)OC1CN2CCC1CC2 (stereo not drawn) [Aceclidine] | > 50 | –
CC(=O)Oc1ccc(C(=C2CCCCC2)c2ccc(OC(C)=O)cc2)cc1 [Cyclofenil] | > 50 | –
CC(C)(C)NC[C@H](O)COc1cccc2c1CCCC2=O [Levobunolol hydrochloride] | > 20 | –
O=CCc1ccccc1 [Phenylacetaldehyde] | > 90 | –
NCc1ccccc1 [Benzylamine] | > 90 | –
CC(C)=CCC[C@H](C)CCO [(S)-(-)-beta-Citronellol] | > 90 | –
CC(=Cc1ccccc1)[N+](=O)[O-] [(2-Nitro-1-propenyl)benzene] | 10.3 | –
CCOc1ccc(NC(N)=O)cc1 [Dulcin] | > 90 | –
CCCC(CC)c1ccccc1 (stereo not drawn) [3-Phenylhexane] | > 90 | –
CCSC(=O)N(CC(C)C)CC(C)C [Butylate] | > 90 | –

Structure (SMILES) | CC50 at 24 h (AC50 (uM) modified / 1000) [µM] | further results
CON(C)C(=O)Nc1ccc(Br)c(Cl)c1 [Chlorbromuron] | – | CC50 at 24 h (AC50 (uM) modified / 1000, Tox21_110001=Tox21_300793, viability, 1 nM T3 present, 24 h): > 90 µM
NS(=O)(=O)c1cc2c(cc1Cl)NC(C(Cl)Cl)NS2(=O)=O (stereo not drawn) [Trichlormethiazide] | > 20 | –
CCc1ccc(CC)cc1 [1,4-Diethylbenzene] | > 90 | –
Cc1cccc(N)c1 [3-Methylaniline hydrochloride] | > 90 | –
COC(OC)C(C)c1ccccc1 (stereo not drawn) [2-Phenylpropionaldehyde dimethyl acetal] | > 90 | –
O=C(N[C@@H](Cc1ccccc1)[C@@H](O)C(=O)N1C[C@@H](O)[C@@H](O)C1)c1cc2cc(Cl)ccc2[nH]1 [Ingliforib] | 78.2 | –
O=CC(Br)(Br)Br [Tribromoacetaldehyde] | – | CC50 at 24 h (AC50 (uM) modified / 1000, Tox21_110001=Tox21_200535, viability, 1 nM T3 present, 24 h): 25.5 µM
CNC1CCCN(c2c(F)cc3c(=O)c(C(=O)O)cn(C4CC4)c3c2OC)C1 (stereo not drawn) [Balofloxacin] | > 50 | –
CC(C)C1(C)N=C(c2ncccc2C(=O)O)NC1=O (stereo not drawn) [Imazapyr] | > 90 | –
CCCCNC(=O)n1c(NC(=O)OC)nc2ccccc21 [Benomyl] | > 90 | –
Cc1cc(Cl)ccc1N [4-Chloro-2-methylaniline hydrochloride] | > 90 | –
CCCCc1cc2ccccc2c(OCCN(C)C)n1 [Dimethisoquin hydrochloride] | 7.4 | –
CC1=NN(c2ccc(S(=O)(=O)O)cc2)C(=O)C1 [4-(3-Methyl-5-oxo-4,5-dihydro-1H-pyrazol-1-yl)benzenesulfonic acid] | > 90 | –
Nc1cccc(N)n1 [2,6-Diaminopyridine] | > 90 | –
O=C(c1ccc(Cl)cc1)c1ccc(Cl)cc1 [4,4'-Dichlorobenzophenone] | > 90 | –
Cc1nc2n(c(=O)c1CCN1CCC(c3noc4cc(F)ccc34)CC1)CCCC2 [Risperidone] | > 50 | –
CS(=O)(=O)O [Methanesulfonic acid] | > 90 | –
C[Si](C)(C)Cl [Chlorotrimethylsilane] | > 90 | –
CC(CC(=O)Cl)CC(C)(C)C (stereo not drawn) [3,5,5-Trimethylhexanoyl chloride] | > 90 | –
